US7964604B2, “Bifeprunox mesylate maintenance dose compositions and methods for using the same” (Solvay Pharmaceuticals B.V., priority 2005, dated 2011)
Like-named read-outs stand apart in the source and are kept apart here.

Key:
[1] = Stability of polymorphic forms; type: physicochemical; conditions: for thermodynamic stability of the crystalline form: monomethanesulfonate
Source text: During further investigations it appeared that polymorphs γ and δ are metastable, and therefore may have drawbacks when used in a pharmaceutical formulation. The unpredictable formation of one of the two polymorphs γ and δ or a mixture thereof is also undesirable. It would be desirable, therefore, to provide a stable crystalline form of 7-[4-([1,1′-biphenyl]-3-ylmethyl)-1-piperazinyl]-2(3H)-benzoxazolone monomethanesulfonate for pharmaceutical use which can be consistently produced.
Furthermore this crystalline form crystallizes in the form of large crystals which can be easily filtrated and have a high purity. Therefore this polymorph α is particularly suitable for the formulation of bifeprunox mesylate in a solid form, if desired after particle size reduction.

[2] = Tablet dissolution test (paddle method); type: physicochemical; conditions: McILvaine buffer pH 3.0
Experimental: Three different strengths of tablets (10 mg, 5 mg and 1 mg of bifeprunox mesylate) were prepared having the compositions shown in Table 10; the tablets were designated T1, T2 and T3, respectively.
Each of the tablets were placed in a dissolution test under the following conditions: Apparatus: paddle method; Stirring speed: 50 rpm; Amount of test dissolution medium: 900 ml; Temperature of dissolution medium: 37° C.±0.5° C.
Six different dissolution media were used as follows:
Media 1: Dissolve 2.0 g of sodium chloride dissolved in 7.0 ml of hydrochloric acid, q.s. with water to make 1000 ml (pH 1.2);
Media 2: McILvaine buffer solution (pH 3.0), pH adjusted with 0.05 mol/L of sodium hydrogen phosphate and 0.025 mol/L of citric acid;
Media 3: McILvaine buffer solution (pH 4.0);
Media 4: McILvaine buffer solution (pH 5.0);
Media 6: To 250 ml of 0.2 mol/L potassium dihydrogenphosphate TS add 118 ml of 0.2 mol/L sodium hydroxide TS and water to make 1000 ml.
Dissolution testing was performed in triplicate.

[3] = Maximum tolerated single dose; type: in vivo, human; conditions: healthy subjects and patients with schizophrenia
Experimental: (§1) In healthy subjects and patients with schizophrenia, the maximum tolerated single dose of bifeprunox was 0.5 mg. Tolerance to dose-limiting side effects (nausea, dizziness, vomiting, and orthostatic hypotension) developed as the dosage was titrated upwards. All PK assessments at doses higher than 0.5 mg were performed following multiple dosages under steady-state conditions. Doses of 5-40 mg were administered in efficacy studies. PK parameters describing absorption, distribution, metabolism, and elimination were calculated based on non-compartmental analysis. PK parameter values from each study were combined to create a pooled dataset. The potential influence of gender, body weight, and race on bifeprunox PK was analyzed.

CYP2C9 [4] = biological target: T1, CYP2C9 (Homo sapiens, UniProt P11712); test: In vitro metabolism; type: in vitro ADME; conditions: in vitro data
T1 sequence (P11712 whole entry): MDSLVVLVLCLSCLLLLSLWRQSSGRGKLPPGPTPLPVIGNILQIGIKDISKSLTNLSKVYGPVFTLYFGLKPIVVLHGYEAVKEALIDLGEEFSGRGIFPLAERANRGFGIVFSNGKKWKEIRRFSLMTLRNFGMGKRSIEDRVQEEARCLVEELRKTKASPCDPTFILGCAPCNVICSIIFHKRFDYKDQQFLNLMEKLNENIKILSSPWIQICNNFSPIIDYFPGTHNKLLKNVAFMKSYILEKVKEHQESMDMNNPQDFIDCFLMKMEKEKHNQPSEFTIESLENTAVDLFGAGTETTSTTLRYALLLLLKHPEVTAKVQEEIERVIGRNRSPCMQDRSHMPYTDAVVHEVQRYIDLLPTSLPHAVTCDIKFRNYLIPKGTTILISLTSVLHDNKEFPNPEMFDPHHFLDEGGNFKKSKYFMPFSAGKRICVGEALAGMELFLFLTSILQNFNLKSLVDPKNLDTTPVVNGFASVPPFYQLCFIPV

[5] = Pooled analysis of pharmacokinetic parameters in healthy subjects; type: in vivo, human
Source text: (§2) The pharmacokinetics of bifeprunox in healthy subjects were investigated based on a pooled analysis of pharmacokinetic (PK) parameters from 21 clinical pharmacology studies. The pooled analysis included PK profiles obtained following single and multiple doses administered to 132 and 399 subjects, respectively, and explored the potential effects of age, gender, body weight and race. In addition, PK in patients (PTS) with schizophrenia were investigated using a population PK approach based on samples from 376 subjects in phase II studies and 434 subjects in phase III studies.
as §1

[6] = PK in healthy subjects with reduced CYP2C enzyme activity; type: in vivo, human
In vitro metabolism = type: in vitro ADME; conditions: in vitro data, CYP2A4
[7] = Population PK assessment in patients with schizophrenia; type: in vivo, human; conditions: schizophrenia patients (SP)
Source text: as §2
A population-based PK assessment using compartmental methods was conducted in 810 patients with schizophrenia enrolled in several clinical studies.

[8] = Drug-drug interactions (co-administration); type: in vivo, human
Source text: Co-administration with […] paroxetine had no effect on bifeprunox PK. Bifeprunox exposure was reduced by approximately 50% after co-administration with the CYP3A4 inducer carbamazepine. […] Bifeprunox had no effect on the PK and pharmacodynamics of warfarin and the PK of lithium. […] Administration of famotidine, an H2 antagonist that inhibits gastric acid secretion, had no effect on bifeprunox PK.

CYP2C9 [9] = biological target: T1, CYP2C9; test: Metabolism based on in vivo data; set-up: from tissue; host or cells: endogenous enzyme of clinical subjects (in vivo)
Experimental: (§3) Based on those pharmacokinetics, bifeprunox (an investigational partial dopamine agonist antipsychotic compound) was rapidly absorbed after oral administration. Multiple-dose PK of bifeprunox were dose proportional over the range of 20 to 40 mg doses. Bifeprunox was extensively distributed into peripheral tissues and highly protein bound. It was primarily eliminated in the feces. […] Bifeprunox has a low drug interaction potential with other drugs used in these studies (e.g. lithium, warfarin and famotidine).

CYP3A4 [10] = biological target: T2, CYP3A4 (Homo sapiens, UniProt P08684); test: Metabolism based on in vivo data; set-up: from tissue; host or cells: endogenous enzyme of clinical subjects (in vivo)
T2 sequence (P08684 whole entry): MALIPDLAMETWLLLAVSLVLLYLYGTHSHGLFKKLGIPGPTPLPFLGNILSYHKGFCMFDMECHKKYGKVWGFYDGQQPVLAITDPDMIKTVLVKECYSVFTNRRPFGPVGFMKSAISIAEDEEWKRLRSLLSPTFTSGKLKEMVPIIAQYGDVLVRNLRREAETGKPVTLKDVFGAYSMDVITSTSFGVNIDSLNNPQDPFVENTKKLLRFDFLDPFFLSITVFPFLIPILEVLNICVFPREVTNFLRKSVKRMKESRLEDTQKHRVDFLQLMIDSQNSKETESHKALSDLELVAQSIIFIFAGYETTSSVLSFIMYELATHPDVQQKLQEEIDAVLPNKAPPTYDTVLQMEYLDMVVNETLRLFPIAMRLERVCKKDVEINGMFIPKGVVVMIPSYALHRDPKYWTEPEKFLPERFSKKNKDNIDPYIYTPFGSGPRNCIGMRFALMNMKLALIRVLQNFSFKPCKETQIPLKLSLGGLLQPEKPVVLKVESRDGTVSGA
Experimental: as §3

[11] = Administration with a high-fat meal; type: in vivo, human; conditions: 40 mg dose
Experimental: Bifeprunox was rapidly absorbed after oral administration. The median time to peak plasma concentration (Tmax) was approximately 2 hours. Multiple patients were dosed proportional in the 20 to 40 mg/day range (mean AUC0-24 for 20 mg: 381.5 ng·hr/mL and mean AUC0-24 for 40 mg: 825.1 ng·hr/mL). […] Absolute oral bioavailability of the bifeprunox tablets used in the pooled studies has not been determined.

CYP3A4 [12] = biological target: T2, CYP3A4; test: In vitro metabolism; type: in vitro ADME; conditions: in vitro data
plasma proteins = test: Plasma protein binding; type: in vitro ADME; conditions: human, healthy patients as well as those with renal or hepatic impairment, read-out: bound to plasma proteins
Source text: Apparent volume of distribution (Vz/F) was 1300 L. Based upon the volume of distribution, bifeprunox was extensively distributed into the peripheral tissues. […] Bifeprunox was more than 99% bound to plasma proteins in healthy patients as well as those with renal or hepatic impairment.

[13] = co-administration with carbamazepine
[14] = co-administration with fluconazole
[15] = co-administration with ketoconazole

With `O=c1[nH]c2cccc(N3CCN(Cc4cccc(-c5ccccc5)c4)CC3)c2o1` [polymorph α, 7-[4-([1,1′-biphenyl]-3-ylmethyl)-1-piperazinyl]-2(3H)-benzoxazolone monomethanesulfonate] the “conversion of the polymorphic form” value ([1]; high atmospheric humidity or higher temperature) was “does not undergo conversion” and the “thermodynamic stability of the crystalline form” value (shortened to “thermodynamic stability”) [1] was “more thermodynamically stable”.
For `O=c1[nH]c2cccc(N3CCN(Cc4cccc(-c5ccccc5)c4)CC3)c2o1` [bifeprunox, 7-[4-([1,1′-biphenyl]-3-ylmethyl)-1-piperazinyl]-2(3H)-benzoxazolone monomethanesulfonate], the dissolution behavior [2] was “dissolves almost immediately”, the “maximum tolerated single dose” value [3] was 0.5 mg and the “metabolism in the liver by enzyme” value (CYP2C9 [4]) was “primarily”. The “Bioavailability (predicted)” value ([5]; based on hepatic blood flow and oral clearance) was 54%, the “mean steady-state elimination half-life (t1/2)” value ([5]; following multiple dose administration) was 14.4 hours and approximately 14 hours and the Cl/F ([5]; healthy subjects (HS)) was 62.2 L/h. For the same compound, the blood plasma ratio ([5]; human, blood and plasma) was 0.7 to 0.9, the Vd/F ([5]; human, in vivo) was about 1300 L and the “distribution of bifeprunox or its metabolites into red blood cells” value ([5]; human, in vivo) was “No extensive distribution”. For the same compound, the half-life ([5]; human, in vivo) was 14 h, the half-life ([5]; human, in vivo, multiple dose, 20 and 40 mg/day, mean ± SD, read-out: T1/2 (converted)) was 14.4 ± 5.3 h and the AUC(0-t) ([5]; human, plasma, oral, 20 mg, multiple dose, read-out: mean AUC0-24) was 382 ng·h/mL. For the same compound, the AUC(0-t) ([5]; human, plasma, oral, 40 mg, multiple dose, read-out: mean AUC0-24) was 825 ng·h/mL, the Vd/F ([5]; human, plasma, oral, healthy subjects, read-out: Apparent volume of distribution (Vz/F)) was 1300 L and the Cmax ([5]; human, plasma, oral, multiple dose, 20 and 40 mg/day, dose normalized to 20 mg, mean ± SD) was 62.1 ± 38.2 ng/mL. The AUC(0-t) ([5]; human, plasma, oral, multiple dose, 20 and 40 mg/day, dose normalized to 20 mg, mean ± SD, read-out: AUC0-24) was 402 ± 292 ng·h/mL, the Vd/F ([5]; human, plasma, oral, multiple dose, 20 and 40 mg/day, mean ± SD, read-out: Vzbw/F (apparent volume of distribution corrected by body weight)) was 17.3 ± 9.4 L/kg and the Tmax ([5]; human, plasma, oral, multiple dose, 20 and 40 mg/day, median (range), read-out: Tmax) was 2 h. For the same compound, the CL/F ([5]; human, plasma, po, multiple dose, 20 and 40 mg/day, mean ± SD, read-out: CLbw/F (weight normalized oral clearance) (converted)) was 15 mL/min/kg, the Tmax ([5]; human, plasma, oral administration, read-out: median time to peak plasma concentration (Tmax)) was about 2 h and the “age-, gender-, body weight-, or race-related effects on PK” value ([5]; pooled analysis) was “no clinically relevant”. For the same compound, the “Steady-state mean oral clearance (CL/F)” value ([5]; steady state) was 62.2 L/h, the “AUC, fold higher than for extensive metabolizers” value ([6]; intermediate metabolizers) was 3.7 fold and the “Cmax, fold higher than for extensive metabolizers” value ([6]; intermediate metabolizers (reduced CYP2C activity)) was 3.1 fold. For the same compound, the “AUC, fold higher than for extensive metabolizers” value ([6]; slow metabolizers) was 7.1 fold, the “Cmax, fold higher than for extensive metabolizers” value ([6]; slow metabolizers (reduced CYP2C activity)) was 3.9 fold and the “metabolism in the liver by enzyme” value (In vitro metabolism) was “minor contribution”. The half-life ([7]; human, in vivo, oral) was 15 h, the Vd/F ([7]; human, in vivo, oral, read-out: Vz/F) was about 1100 L and the Cl/F [7] was 57 L/h. The “effect on bifeprunox PK” value ([8]; administration of famotidine) was “no effect”, the “prothrombin time profile following warfarin, presence versus absence of bifeprunox” value ([8]; bifeprunox 40 mg/day with warfarin) was “comparable” and the “decrease of mean AUC0-24” value [8, 13] was 54%. The “decrease of mean Cmax” value [8, 13] was 50%, the “reduction of bifeprunox exposure” value [8, 13] was “approximately 50%” and the “increase of mean bifeprunox AUC0-24” value [8, 14] was 3.7 fold. For the same compound, the “increase of mean bifeprunox Cmax” value [8, 14] was 2.5 fold, the “increase of bifeprunox AUC0-24” value [8, 15] was 63% and the “increase of bifeprunox Cmax” value [8, 15] was 44%. The “effect of bifeprunox on the PK of lithium” value ([8]; co-administration with lithium) was “no effect”, the “effect on bifeprunox PK” value ([8]; co-administration with paroxetine) was “no effect” and the “effect of bifeprunox on the PK and pharmacodynamics of warfarin” value ([8]; co-administration with warfarin) was “no effect”. For the same compound, the “metabolism by enzyme, based on in vivo data” value (CYP2C9 [9]) was “primarily metabolized”, the “metabolism by enzyme, based on in vivo data” value (CYP3A4 [10]) was “to a lesser extent” and the “Cmax increase with high-fat meal” value [11] was 29%. The “Tmax delay with high-fat meal” value [11] was 1.5 h, the “metabolism in the liver by enzyme” value (CYP3A4 [12]) was “primarily” and the fraction unbound (plasma proteins) was under 0.01.
In the case of `O=c1[nH]c2cccc(N3CCN(Cc4cccc(-c5ccccc5)c4)CC3)c2o1` [polymorph δ, 7-[4-([1,1′-biphenyl]-3-ylmethyl)-1-piperazinyl]-2(3H)-benzoxazolone monomethanesulfonate], the “thermodynamic stability” value [1] is reported as “metastable”.
In the case of `O=c1[nH]c2cccc(N3CCN(Cc4cccc(-c5ccccc5)c4)CC3)c2o1` [polymorph γ, 7-[4-([1,1′-biphenyl]-3-ylmethyl)-1-piperazinyl]-2(3H)-benzoxazolone monomethanesulfonate], the “thermodynamic stability” value [1] is reported as “metastable”.
